Assay results taken from article PMC4823954, “From fighting depression to conquering tumors: a novel tricyclic thiazepine compound as a tubulin polymerization inhibitor” (Cell Death & Disease, 2016).

Legend:
Assay in all cases: KINOMEscan
Assay type in all cases: binding
Conditions in all cases: read-out: % Ctrl
[1] = biological target: T1, KIT(A829P) (Homo sapiens, UniProt P10721, A829P)
T1 construct: purchased DiscoveRx KINOMEscan

[2] = biological target: T2, MINK (Homo sapiens, UniProt Q8N4C8)
T2 construct: purchased DiscoveRx KINOMEscan
Outline: (§1)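 Competition binding panel of 442 non-mutant kinases: test compound at 5 and 10 μM competed with an active-site-directed ligand for 1 h with shaking. Bound kinase was eluted with 0.5 μM ligand and quantified by qPCR; %Ctrl = (compound − positive control)/(DMSO − positive control) × 100, lower meaning tighter binding.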

[3] = biological target: T3, TYK2(JH1domain-catalytic) (Homo sapiens, UniProt P29597)
T3 construct: TYK2(JH1domain-catalytic); purchased DiscoveRx KINOMEscan
Outline: as §1

[4] = biological target: T4, PCTK1 (Homo sapiens, UniProt Q00536)
T4 construct: purchased DiscoveRx KINOMEscan
Outline: as §1

[5] = biological target: T5, PIK3CA(M1043I) (Homo sapiens, UniProt P42336, M1043I)
T5 construct: purchased DiscoveRx KINOMEscan
T5 sequence (P42336 whole entry M1043I): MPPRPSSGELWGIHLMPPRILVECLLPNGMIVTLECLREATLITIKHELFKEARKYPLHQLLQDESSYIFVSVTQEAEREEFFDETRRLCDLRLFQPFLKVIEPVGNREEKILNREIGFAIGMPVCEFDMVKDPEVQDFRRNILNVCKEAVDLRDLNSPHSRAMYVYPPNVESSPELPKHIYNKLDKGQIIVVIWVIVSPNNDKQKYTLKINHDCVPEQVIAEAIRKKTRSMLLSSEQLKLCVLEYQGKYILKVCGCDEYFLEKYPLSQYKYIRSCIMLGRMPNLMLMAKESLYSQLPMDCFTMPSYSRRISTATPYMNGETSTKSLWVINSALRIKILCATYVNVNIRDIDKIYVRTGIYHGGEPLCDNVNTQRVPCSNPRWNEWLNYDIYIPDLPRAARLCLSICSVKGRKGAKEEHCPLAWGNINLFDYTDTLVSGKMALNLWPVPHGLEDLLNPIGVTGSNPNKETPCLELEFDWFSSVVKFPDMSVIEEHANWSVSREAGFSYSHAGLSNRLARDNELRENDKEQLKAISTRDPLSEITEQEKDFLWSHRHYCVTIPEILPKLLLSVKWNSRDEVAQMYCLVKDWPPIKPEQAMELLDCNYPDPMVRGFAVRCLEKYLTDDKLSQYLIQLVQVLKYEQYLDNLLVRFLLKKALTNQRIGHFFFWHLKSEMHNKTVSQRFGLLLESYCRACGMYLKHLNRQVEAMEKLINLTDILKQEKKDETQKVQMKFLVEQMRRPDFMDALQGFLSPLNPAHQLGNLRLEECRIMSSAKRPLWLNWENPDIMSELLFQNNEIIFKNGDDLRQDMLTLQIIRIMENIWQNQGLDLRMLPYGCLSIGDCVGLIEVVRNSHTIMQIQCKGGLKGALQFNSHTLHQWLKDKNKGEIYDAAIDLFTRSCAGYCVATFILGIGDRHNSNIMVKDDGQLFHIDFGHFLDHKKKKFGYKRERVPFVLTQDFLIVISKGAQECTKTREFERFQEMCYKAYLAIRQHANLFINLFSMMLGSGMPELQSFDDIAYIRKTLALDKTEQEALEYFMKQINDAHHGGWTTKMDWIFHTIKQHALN

[6] = biological target: T6, BTK (Homo sapiens, UniProt Q06187)
T6 construct: purchased DiscoveRx KINOMEscan
Outline: as §1

[7] = biological target: T7, INSR (Homo sapiens, UniProt P06213)
T7 construct: purchased DiscoveRx KINOMEscan
T7 sequence (P06213 28-1382): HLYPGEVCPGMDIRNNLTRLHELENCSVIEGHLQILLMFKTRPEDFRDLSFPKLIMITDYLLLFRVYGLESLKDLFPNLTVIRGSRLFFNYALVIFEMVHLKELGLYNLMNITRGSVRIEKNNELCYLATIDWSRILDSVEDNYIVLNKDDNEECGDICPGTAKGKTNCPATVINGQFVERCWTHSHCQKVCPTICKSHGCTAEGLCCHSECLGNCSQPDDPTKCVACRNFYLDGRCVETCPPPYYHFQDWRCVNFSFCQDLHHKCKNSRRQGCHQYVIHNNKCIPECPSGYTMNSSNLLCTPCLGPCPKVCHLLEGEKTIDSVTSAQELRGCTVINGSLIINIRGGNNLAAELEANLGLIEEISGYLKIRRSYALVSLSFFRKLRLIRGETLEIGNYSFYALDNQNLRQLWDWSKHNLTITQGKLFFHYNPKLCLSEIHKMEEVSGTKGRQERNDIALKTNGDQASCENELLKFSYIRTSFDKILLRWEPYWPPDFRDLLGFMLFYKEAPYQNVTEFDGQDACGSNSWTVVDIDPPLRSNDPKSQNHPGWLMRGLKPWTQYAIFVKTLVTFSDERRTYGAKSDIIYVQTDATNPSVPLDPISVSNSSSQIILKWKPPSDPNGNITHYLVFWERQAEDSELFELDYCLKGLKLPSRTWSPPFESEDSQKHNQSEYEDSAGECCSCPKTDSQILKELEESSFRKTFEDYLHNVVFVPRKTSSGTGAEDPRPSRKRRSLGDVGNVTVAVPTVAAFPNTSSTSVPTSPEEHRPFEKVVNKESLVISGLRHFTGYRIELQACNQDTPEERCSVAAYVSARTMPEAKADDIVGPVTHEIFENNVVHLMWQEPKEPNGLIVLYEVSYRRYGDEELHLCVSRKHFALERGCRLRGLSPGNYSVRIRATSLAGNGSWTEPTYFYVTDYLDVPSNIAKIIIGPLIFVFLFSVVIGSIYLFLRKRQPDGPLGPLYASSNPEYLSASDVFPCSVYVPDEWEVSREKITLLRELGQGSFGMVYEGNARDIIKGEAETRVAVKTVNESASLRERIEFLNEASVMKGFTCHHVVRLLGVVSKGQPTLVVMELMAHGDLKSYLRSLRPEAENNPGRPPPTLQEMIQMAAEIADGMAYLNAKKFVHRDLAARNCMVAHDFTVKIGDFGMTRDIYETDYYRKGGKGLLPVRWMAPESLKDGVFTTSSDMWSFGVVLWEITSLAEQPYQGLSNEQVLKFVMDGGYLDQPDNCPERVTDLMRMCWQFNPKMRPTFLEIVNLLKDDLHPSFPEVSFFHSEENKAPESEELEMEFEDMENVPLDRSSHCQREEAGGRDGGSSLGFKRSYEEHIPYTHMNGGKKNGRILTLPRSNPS
Outline: as §1

[8] = biological target: T8, PIP5K1A (Homo sapiens, UniProt Q99755)
T8 construct: purchased DiscoveRx KINOMEscan
Outline: as §1

[9] = biological target: T9, WEE1 (Homo sapiens, UniProt P30291)
T9 construct: purchased DiscoveRx KINOMEscan
T9 sequence (P30291 whole entry): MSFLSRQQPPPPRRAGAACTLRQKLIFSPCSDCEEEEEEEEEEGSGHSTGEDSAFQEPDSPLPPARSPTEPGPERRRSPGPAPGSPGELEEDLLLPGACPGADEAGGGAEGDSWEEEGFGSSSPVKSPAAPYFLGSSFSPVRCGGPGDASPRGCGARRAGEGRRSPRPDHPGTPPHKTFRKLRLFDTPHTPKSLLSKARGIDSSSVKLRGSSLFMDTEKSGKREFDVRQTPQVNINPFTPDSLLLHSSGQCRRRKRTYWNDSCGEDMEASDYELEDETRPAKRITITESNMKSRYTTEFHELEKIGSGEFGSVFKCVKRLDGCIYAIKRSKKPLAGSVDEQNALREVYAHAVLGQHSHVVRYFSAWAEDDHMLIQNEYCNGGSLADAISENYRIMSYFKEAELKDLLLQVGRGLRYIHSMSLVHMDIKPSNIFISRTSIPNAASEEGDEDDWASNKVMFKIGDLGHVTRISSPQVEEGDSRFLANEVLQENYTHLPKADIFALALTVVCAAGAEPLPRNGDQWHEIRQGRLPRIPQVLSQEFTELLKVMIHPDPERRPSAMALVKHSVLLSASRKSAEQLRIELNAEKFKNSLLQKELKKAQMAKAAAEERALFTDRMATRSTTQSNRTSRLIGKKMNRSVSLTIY
Outline: as §1

[10] = biological target: T10, DYRK1A (Homo sapiens, UniProt Q13627)
T10 construct: purchased DiscoveRx KINOMEscan
Outline: as §1

[11] = biological target: T11, NEK9 (Homo sapiens, UniProt Q8TD19)
T11 construct: purchased DiscoveRx KINOMEscan
Outline: as §1

[12] = biological target: T12, CLK1 (Homo sapiens, UniProt P49759)
T12 construct: purchased DiscoveRx KINOMEscan
T12 sequence (P49759 whole entry): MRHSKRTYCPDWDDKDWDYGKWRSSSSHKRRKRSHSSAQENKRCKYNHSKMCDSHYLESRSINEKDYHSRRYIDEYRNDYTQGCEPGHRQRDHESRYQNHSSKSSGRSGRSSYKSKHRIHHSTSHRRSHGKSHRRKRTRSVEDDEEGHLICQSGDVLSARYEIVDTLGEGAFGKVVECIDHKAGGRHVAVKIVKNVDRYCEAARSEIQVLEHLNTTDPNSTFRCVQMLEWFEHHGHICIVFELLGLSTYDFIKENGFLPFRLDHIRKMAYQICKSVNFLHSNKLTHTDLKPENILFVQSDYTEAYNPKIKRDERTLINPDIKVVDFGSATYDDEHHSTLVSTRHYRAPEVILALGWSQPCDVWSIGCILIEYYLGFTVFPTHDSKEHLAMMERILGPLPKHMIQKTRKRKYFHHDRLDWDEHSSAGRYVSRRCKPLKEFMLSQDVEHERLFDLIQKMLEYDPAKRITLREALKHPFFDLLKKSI
Outline: as §1

[13] = biological target: T13, PAK1 (Homo sapiens, UniProt Q13153)
T13 construct: purchased DiscoveRx KINOMEscan
Outline: as §1

[14] = biological target: T14, DLK (Homo sapiens, UniProt Q12852)
T14 construct: purchased DiscoveRx KINOMEscan
Outline: as §1

[15] = biological target: T15, NDR2 (Homo sapiens, UniProt Q9Y2H1)
T15 construct: purchased DiscoveRx KINOMEscan
Outline: as §1

[16] = biological target: T16, PLK2 (Homo sapiens, UniProt Q9NYY3)
T16 construct: purchased DiscoveRx KINOMEscan
Outline: as §1

[17] = biological target: T17, MET(Y1235D) (Homo sapiens, UniProt P08581, Y1235D)
T17 construct: purchased DiscoveRx KINOMEscan

[18] = biological target: T18, MAK (Homo sapiens, UniProt P20794)
T18 construct: purchased DiscoveRx KINOMEscan
Outline: as §1

[19] = biological target: T19, MEK5 (Homo sapiens, UniProt Q13163)
T19 construct: purchased DiscoveRx KINOMEscan
Outline: as §1

[20] = biological target: T20, RPS6KA5(Kin.Dom.1-N-terminal) (Homo sapiens, UniProt O75582)
T20 construct: RPS6KA5(Kin.Dom.1-N-terminal); purchased DiscoveRx KINOMEscan
Outline: as §1

[21] = biological target: T21, AKT1 (Homo sapiens, UniProt P31749)
T21 construct: purchased DiscoveRx KINOMEscan
T21 sequence (P31749 whole entry): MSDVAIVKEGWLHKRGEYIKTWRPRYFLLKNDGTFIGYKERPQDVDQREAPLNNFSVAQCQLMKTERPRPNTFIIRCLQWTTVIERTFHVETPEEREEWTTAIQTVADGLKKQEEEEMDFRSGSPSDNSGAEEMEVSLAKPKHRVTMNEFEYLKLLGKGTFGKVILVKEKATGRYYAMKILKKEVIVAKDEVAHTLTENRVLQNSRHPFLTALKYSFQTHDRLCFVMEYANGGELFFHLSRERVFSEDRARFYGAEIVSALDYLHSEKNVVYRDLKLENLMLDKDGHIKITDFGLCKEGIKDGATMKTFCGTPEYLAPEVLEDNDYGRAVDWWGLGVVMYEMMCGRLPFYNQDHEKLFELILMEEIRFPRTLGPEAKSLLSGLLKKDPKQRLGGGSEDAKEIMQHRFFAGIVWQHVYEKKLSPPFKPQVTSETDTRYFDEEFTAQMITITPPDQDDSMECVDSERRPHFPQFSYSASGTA
Outline: as §1

[22] = biological target: T22, PRKD2 (Homo sapiens, UniProt Q9BZL6)
T22 construct: purchased DiscoveRx KINOMEscan
Outline: as §1

[23] = biological target: T23, SRPK2 (Homo sapiens, UniProt P78362)
T23 construct: purchased DiscoveRx KINOMEscan
T23 sequence (P78362 whole entry): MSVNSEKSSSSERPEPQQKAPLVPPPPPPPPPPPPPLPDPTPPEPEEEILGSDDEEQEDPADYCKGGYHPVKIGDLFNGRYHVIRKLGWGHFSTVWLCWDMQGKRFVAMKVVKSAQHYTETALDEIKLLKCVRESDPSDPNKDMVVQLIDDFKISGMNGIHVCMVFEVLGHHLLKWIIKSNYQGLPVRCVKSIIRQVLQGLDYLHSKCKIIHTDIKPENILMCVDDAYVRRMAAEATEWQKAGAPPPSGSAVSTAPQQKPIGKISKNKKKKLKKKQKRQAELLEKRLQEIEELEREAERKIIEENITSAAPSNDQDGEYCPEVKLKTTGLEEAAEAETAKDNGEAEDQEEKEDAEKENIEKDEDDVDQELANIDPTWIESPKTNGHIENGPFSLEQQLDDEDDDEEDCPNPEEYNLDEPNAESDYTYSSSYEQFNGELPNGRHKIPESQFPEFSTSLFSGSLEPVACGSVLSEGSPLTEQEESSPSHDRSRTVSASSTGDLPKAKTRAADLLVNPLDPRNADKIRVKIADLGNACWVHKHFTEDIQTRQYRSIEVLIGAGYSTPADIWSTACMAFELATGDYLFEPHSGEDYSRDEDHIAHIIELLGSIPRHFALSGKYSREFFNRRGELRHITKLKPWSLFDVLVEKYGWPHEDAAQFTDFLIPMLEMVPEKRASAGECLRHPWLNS
Outline: as §1

[24] = biological target: T24, EGFR(L747-E749del, A750P) (Homo sapiens, UniProt P00533, A750P/DEL747-749)
T24 construct: purchased DiscoveRx KINOMEscan
T24 sequence (P00533 with tags, fused parts or gaps DEL747-749/A750P limits assumed): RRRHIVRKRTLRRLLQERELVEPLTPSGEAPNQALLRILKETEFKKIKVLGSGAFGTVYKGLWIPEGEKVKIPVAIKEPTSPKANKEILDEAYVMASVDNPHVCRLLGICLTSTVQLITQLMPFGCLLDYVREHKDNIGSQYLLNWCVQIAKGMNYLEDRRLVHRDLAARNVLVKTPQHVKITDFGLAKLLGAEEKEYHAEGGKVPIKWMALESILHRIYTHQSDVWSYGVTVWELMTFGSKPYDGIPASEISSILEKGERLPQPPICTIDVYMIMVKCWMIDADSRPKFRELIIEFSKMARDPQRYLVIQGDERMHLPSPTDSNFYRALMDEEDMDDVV

Which results are given for `Cc1ccc(C2=Nc3cccnc3S(=O)(=O)c3ccccc32)cc1` [TBPT, 6-(p-tolyl)benzo[f] pyrido[2,3-b][1,4] thiazepine 11,11-dioxide]?
remaining binding at 5 µM ([1]; 5 μM): 95%; remaining binding at 10 µM ([1]; 10 μM): 96%; remaining binding at 5 µM ([2]; 5 μM): 89%; remaining binding at 10 µM ([2]; 10 μM): 83%; remaining binding at 5 µM ([3]; 5 μM): 69%; remaining binding at 10 µM ([3]; 10 μM): 100%; remaining binding at 5 µM ([4]; 5 μM): 90%; remaining binding at 10 µM ([4]; 10 μM): 100%; remaining binding at 5 µM ([5]; 5 μM): 100%; remaining binding at 10 µM ([5]; 10 μM): 100%; remaining binding at 5 µM ([6]; 5 μM): 91%; remaining binding at 10 µM ([6]; 10 μM): 83%; remaining binding at 5 µM ([7]; 5 μM): 98%; remaining binding at 10 µM ([7]; 10 μM): 84%; remaining binding at 5 µM ([8]; 5 μM): 98%; remaining binding at 10 µM ([8]; 10 μM): 100%; remaining binding at 5 µM ([9]; 5 μM): 100%; remaining binding at 10 µM ([9]; 10 μM): 96%; remaining binding at 5 µM ([10]; 5 μM): 88%; remaining binding at 10 µM ([10]; 10 μM): 100%; remaining binding at 5 µM ([11]; 5 μM): 100%; remaining binding at 10 µM ([11]; 10 μM): 88%; remaining binding at 5 µM ([12]; 5 μM): 95%; remaining binding at 10 µM ([12]; 10 μM): 100%; remaining binding at 5 µM ([13]; 5 μM): 81%; remaining binding at 10 µM ([13]; 10 μM): 92%; remaining binding at 5 µM ([14]; 5 μM): 88%; remaining binding at 10 µM ([14]; 10 μM): 81%; remaining binding at 5 µM ([15]; 5 μM): 100%; remaining binding at 10 µM ([15]; 10 μM): 100%; remaining binding at 5 µM ([16]; 5 μM): 100%; remaining binding at 10 µM ([16]; 10 μM): 83%; remaining binding at 5 µM ([17]; 5 μM): 89%; remaining binding at 10 µM ([17]; 10 μM): 85%; remaining binding at 5 µM ([18]; 5 μM): 94%; remaining binding at 10 µM ([18]; 10 μM): 100%; remaining binding at 5 µM ([19]; 5 μM): 100%; remaining binding at 10 µM ([19]; 10 μM): 95%; remaining binding at 5 µM ([20]; 5 μM): 100%; remaining binding at 10 µM ([20]; 10 μM): 100%; remaining binding at 5 µM ([21]; 5 μM): 84%; remaining binding at 10 µM ([21]; 10 μM): 100%; remaining binding at 5 µM ([22]; 5 μM): 100%; remaining binding at 10 µM ([22]; 10 μM): 100%; remaining binding at 5 µM ([23]; 5 μM): 96%; remaining binding at 10 µM ([23]; 10 μM): 78%; remaining binding at 5 µM ([24]; 5 μM): 91%; remaining binding at 10 µM ([24]; 10 μM): 91%
